Laboratory results as given in patent US9440956B2, “Indole, indazole and benzimidazole arylamides as P2X3 and P2X2/3 antagonists” (Roche Palo Alto LLC, priority 2010, dated 2016).

Columns and labels:
[1] = target: T1, human P2X2/3 receptor (Homo sapiens, UniProt P56373+Q9UBL9); assay: P2X2/3 FLIPR (Fluorometric Imaging Plate Reader) assay; type: cell-based; conditions: CHO-K1 cells transfected with human P2X2/3; agonist α,β-meATP 5 μM; Fluo-3 calcium fluorescence
T1 construct: expressed in transfected cells; host or cells: CHO-K1
T1 sequence (Q9UBL9 1-471): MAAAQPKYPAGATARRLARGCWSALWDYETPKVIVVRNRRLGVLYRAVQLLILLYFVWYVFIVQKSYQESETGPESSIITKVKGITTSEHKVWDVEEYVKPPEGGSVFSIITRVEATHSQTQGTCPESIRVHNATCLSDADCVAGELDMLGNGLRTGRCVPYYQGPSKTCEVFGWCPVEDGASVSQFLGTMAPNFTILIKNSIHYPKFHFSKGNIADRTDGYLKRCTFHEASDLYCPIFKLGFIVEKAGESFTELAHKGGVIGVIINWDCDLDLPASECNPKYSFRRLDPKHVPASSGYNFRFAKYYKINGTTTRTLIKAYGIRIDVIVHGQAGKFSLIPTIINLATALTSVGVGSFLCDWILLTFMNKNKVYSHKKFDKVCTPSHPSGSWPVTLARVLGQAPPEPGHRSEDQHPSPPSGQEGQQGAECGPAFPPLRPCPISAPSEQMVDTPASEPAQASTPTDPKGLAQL
T1 sequence (P56373 1-397): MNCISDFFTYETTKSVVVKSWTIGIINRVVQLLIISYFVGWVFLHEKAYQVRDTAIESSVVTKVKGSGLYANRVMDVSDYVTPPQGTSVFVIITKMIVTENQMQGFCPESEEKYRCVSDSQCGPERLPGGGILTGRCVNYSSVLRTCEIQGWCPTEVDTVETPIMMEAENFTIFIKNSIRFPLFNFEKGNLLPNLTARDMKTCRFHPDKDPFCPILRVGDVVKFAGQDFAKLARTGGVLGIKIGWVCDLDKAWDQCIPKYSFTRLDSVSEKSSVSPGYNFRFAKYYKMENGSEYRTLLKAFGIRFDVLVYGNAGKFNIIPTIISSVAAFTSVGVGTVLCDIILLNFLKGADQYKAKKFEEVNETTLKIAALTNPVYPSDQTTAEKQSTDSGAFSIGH
Procedure: (§1) P2X3/P2X2/3 FLIPR (Fluorometric Imaging Plate Reader) Assay
(§2) CHO-K1 cells were transfected with cloned rat P2X3 or human P2X2/3 receptor subunits and passaged in flasks. 18-24 hours before the FLIPR experiment, cells were released from their flasks, centrifuged, and resuspended in nutrient medium at 2.5×10^5 cells/ml. The cells were aliquoted into black-walled 96-well plates at a density of 50,000 cells/well and incubated overnight in 5% CO2 at 37° C. On the day of the experiment, cells were washed in FLIPR buffer (calcium- and magnesium-free Hank's balanced salt solution, 10 mM HEPES, 2 mM CaCl2, 2.5 mM probenecid; FB). Each well received 100 μl FB and 100 μl of the fluorescent dye Fluo-3 AM [2 μM final conc.]. After a 1 hour dye loading incubation at 37° C., the cells were washed 4 times with FB, and a final 75 μl/well FB was left in each well.
(§3) Test compounds (dissolved in DMSO at 10 mM and serially diluted with FB) or vehicle were added to each well (25 μl of a 4× solution) and allowed to equilibrate for 20 minutes at room temperature. The plates were then placed in the FLIPR and a baseline fluorescence measurement (excitation at 488 nm and emission at 510-570 nm) was obtained for 10 seconds before a 100 μl/well agonist or vehicle addition. The agonist was a 2× solution of α,β-meATP producing a final concentration of 1 μM (P2X3) or 5 μM (P2X2/3). Fluorescence was measured for an additional 2 minutes at 1 second intervals after agonist addition. A final addition of ionomycin (5 μM, final concentration) was made to each well of the FLIPR test plate to establish cell viability and maximum fluorescence of dye-bound cytosolic calcium. Peak fluorescence in response to the addition of α,β-meATP (in the absence and presence of test compounds) was measured and inhibition curves generated using nonlinear regression. PPADS, a standard P2X antagonist, was used as a positive control.

[2] = target: T2, rat P2X3 receptor (Rattus norvegicus, UniProt P49654); assay: P2X3 FLIPR (Fluorometric Imaging Plate Reader) assay; type: cell-based; conditions: CHO-K1 cells transfected with cloned rat P2X3; agonist α,β-meATP 1 μM; Fluo-3 calcium fluorescence
T2 construct: expressed in transfected cells; host or cells: CHO-K1
T2 sequence (P49654 1-397): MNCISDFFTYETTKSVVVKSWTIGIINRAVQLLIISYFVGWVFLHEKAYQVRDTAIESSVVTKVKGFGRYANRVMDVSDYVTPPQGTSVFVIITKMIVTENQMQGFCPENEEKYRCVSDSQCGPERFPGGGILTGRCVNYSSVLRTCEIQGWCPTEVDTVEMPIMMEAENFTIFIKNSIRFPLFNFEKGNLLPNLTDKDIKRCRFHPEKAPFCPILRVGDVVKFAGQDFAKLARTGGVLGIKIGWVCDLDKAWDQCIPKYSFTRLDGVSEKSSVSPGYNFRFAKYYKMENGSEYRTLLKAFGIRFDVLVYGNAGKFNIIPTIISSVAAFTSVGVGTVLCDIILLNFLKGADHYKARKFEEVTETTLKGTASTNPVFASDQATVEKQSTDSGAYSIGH
Procedure: as §1, §2, §3

Row | pKi P2X2/3 [1] | pKi P2X3 [2] | SMILES
1 | 5 | 5.51 | COCCn1ncc2c(-c3ccc(C)cn3)cc(C(=O)NCc3cnc(C)cn3)cc21 [Compound 6, 1-(2-Methoxy-ethyl)-4-(5-methyl-pyridin-2-yl)-1H-indazole-6-carboxylic acid (5-methyl-pyrazin-2-ylmethyl)-amide]
2 | 7.26 | 8.01 | Cc1ccc(-c2cc(C(=O)NCc3cnc(C)cn3)cc3c2cnn3-c2ccccc2C)nc1 [Compound 18, 4-(5-Methyl-pyridin-2-yl)-1-o-tolyl-1H-indazole-6-carboxylic acid (5-methyl-pyrazin-2-ylmethyl)-amide]
3 | 6.34 | 7.38 | CCCCn1ncc2c(-c3ccc(C)cn3)cc(C(=O)NCc3cnc(C)cn3)cc21 [Compound 2, 1-Butyl-4-(5-methyl-pyridin-2-yl)-1H-indazole-6-carboxylic acid (5-methyl-pyrazin-2-ylmethyl)-amide]
4 | 6 | 7.98 | Cc1ccc(-c2cc(C(=O)N[C@@H](C)CO)cc3c2cnn3-c2ccccc2C)nc1 [Compound 19, 4-(5-Methyl-1-pyridin-2-yl)-1-o-tolyl-1H-indazole-6-carboxylic acid ((S)-2-hydroxy-1-methyl-ethyl)-amide]
5 | 6.17 | 7.47 | Cc1ccc(-c2cc(C(=O)NCc3cnc(C)cn3)cc3c2cnn3CCC(C)C)nc1 [Compound 7, 1-(3-Methyl-buty)-4-(5-methyl-pyridin-2-yl)-1H-indazole-6-carboxylic acid (5-methyl-pyrazin-2-ylmethyl)-amide]
